Assays:
Experiment in all cases: cells
DoTc2-4510 = type: functional, cell-based, Homo sapiens; details: Homo sapiens, DoTc2-4510
A498 = type: functional, cell-based, Homo sapiens; details: Homo sapiens, A498;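 also: growth inhibition of human A498 cells, read out with a cell viability assay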
Description: SANGER: Inhibition of human A498 cell growth in a cell viability assay.

HOS = type: functional, cell-based, Homo sapiens; details: Homo sapiens, HOS;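 also: growth inhibition of human HOS cells, read out with a cell viability assay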
Description: SANGER: Inhibition of human HOS cell growth in a cell viability assay.

SW948 = type: functional, cell-based, Homo sapiens; details: Homo sapiens, SW948;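 also: growth inhibition of SW948 cells, read out with a cell viability assay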
Description: SANGER: Inhibition of human SW948 cell growth in a cell viability assay.

ES1 = type: functional, cell-based, Homo sapiens; details: Homo sapiens, ES1;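 also: growth inhibition of ES1 cells, read out with a cell viability assay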
Description: SANGER: Inhibition of human ES1 cell growth in a cell viability assay.

GCIY = type: functional, cell-based, Homo sapiens; details: Homo sapiens, GCIY;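 also: growth inhibition of the human GCIY cell line, read out by a cell viability assay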
Description: SANGER: Inhibition of human GCIY cell growth in a cell viability assay.

ASPC1 = type: functional, cell-based, Homo sapiens; details: Homo sapiens, ASPC1;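 also: growth inhibition of AsPC-1 cells, read out with a cell viability assay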
Description: SANGER: Inhibition of human AsPC-1 cell growth in a cell viability assay.

NB14 = type: functional, cell-based; details: Homo sapiens;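 also: growth inhibition of NB14 cells measured with a cell viability assay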
Description: SANGER: Inhibition of human NB14 cell growth in a cell viability assay.

NCI-H1648 = type: functional, cell-based, Homo sapiens; details: Homo sapiens, NCI-H1648;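 also: cell viability assay measuring inhibition of NCI-H1648 cell growth, from the Sanger screening data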
Description: SANGER: Inhibition of human NCI-H1648 cell growth in a cell viability assay.

Calu-6 = type: functional, cell-based, Homo sapiens; details: Homo sapiens, Calu-6;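 also: growth of human Calu-6 cells, read out by a cell viability assay, IC50 marking inhibition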
Description: SANGER: Inhibition of human Calu-6 cell growth in a cell viability assay.

LU-134-A = type: functional, cell-based; details: Homo sapiens
Description: SANGER: Inhibition of human LU-134-A cell growth in a cell viability assay.

NCI-H2405 = type: functional, cell-based, Homo sapiens; details: Homo sapiens, NCI-H2405;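 also: growth inhibition of the human cell line, read out with a cell viability assay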
Description: SANGER: Inhibition of human NCI-H2405 cell growth in a cell viability assay.

A2058 = type: functional, cell-based; details: Homo sapiens;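 also: reduction of A2058 cell growth, read out with a viability assay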
Description: SANGER: Inhibition of human A2058 cell growth in a cell viability assay.

HCE-4 = type: functional, cell-based, Homo sapiens; details: Homo sapiens, HCE-4;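 also: cell viability assay measuring inhibition of growth in the human HCE-4 cell line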
Description: SANGER: Inhibition of human HCE-4 cell growth in a cell viability assay.

NKM-1 = type: functional, cell-based; details: Homo sapiens;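 also: growth inhibition of NKM-1 cells, read out with a cell viability assay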
Description: SANGER: Inhibition of human NKM-1 cell growth in a cell viability assay.

T98G = type: functional, cell-based, Homo sapiens; details: Homo sapiens, T98G;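 also: growth inhibition of T98G cells, read out by a cell viability assay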
Description: SANGER: Inhibition of human T98G cell growth in a cell viability assay.

COLO-680N = type: functional, cell-based, Homo sapiens; details: Homo sapiens, COLO-680N;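 also: cell viability assay used to measure inhibition of COLO-680N cell growth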
Description: SANGER: Inhibition of human COLO-680N cell growth in a cell viability assay.

NCI-H810 = type: functional, cell-based, Homo sapiens; details: Homo sapiens, NCI-H810;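 also: IC50 reflects inhibition of cancer cell line growth, read out with a cell viability assay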
Description: SANGER: Inhibition of human NCI-H810 cell growth in a cell viability assay.

ML-2 = type: functional, cell-based; details: Homo sapiens;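 also: growth inhibition of ML-2 cells, measured with a cell viability readout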
Description: SANGER: Inhibition of human ML-2 cell growth in a cell viability assay.

NCI-H441 = type: functional, cell-based; details: Homo sapiens;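 also: growth inhibition of NCI-H441 cells, read out with a cell viability assay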
Description: SANGER: Inhibition of human NCI-H441 cell growth in a cell viability assay.

LU-99A = type: functional, cell-based, Homo sapiens; details: Homo sapiens, LU-99A;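 also: growth inhibition of LU-99A cells, read out with a cell viability assay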
Description: SANGER: Inhibition of human LU-99A cell growth in a cell viability assay.

NCI-H2452 = type: functional, cell-based, Homo sapiens; details: Homo sapiens, NCI-H2452;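 also: growth inhibition of NCI-H2452 cells, read out with a cell viability assay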
Description: SANGER: Inhibition of human NCI-H2452 cell growth in a cell viability assay.

AU565 = type: functional, cell-based, Homo sapiens; details: Homo sapiens, AU565;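 also: cell viability assay measuring growth inhibition of human AU565 cells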
Description: SANGER: Inhibition of human AU565 cell growth in a cell viability assay.

CAL-12T = type: functional, cell-based, Homo sapiens; details: Homo sapiens, CAL-12T;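 also: growth inhibition of human CAL-12T cells, read out with a cell viability assay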
Description: SANGER: Inhibition of human CAL-12T cell growth in a cell viability assay.

NCI-H596 = type: functional, cell-based, Homo sapiens; details: Homo sapiens, NCI-H596;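 also: growth inhibition of NCI-H596 cells, read out with a cell viability assay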
Description: SANGER: Inhibition of human NCI-H596 cell growth in a cell viability assay.

YAPC = type: functional, cell-based, Homo sapiens; details: Homo sapiens, YAPC;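 also: growth inhibition of YAPC cells, measured with a cell viability assay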
Description: SANGER: Inhibition of human YAPC cell growth in a cell viability assay.

NCI-H2170 = type: functional, cell-based, Homo sapiens; details: Homo sapiens, NCI-H2170;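 also: cell viability assay measuring growth inhibition of human NCI-H2170 cancer cells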
Description: SANGER: Inhibition of human NCI-H2170 cell growth in a cell viability assay.

OCUB-M = type: functional, cell-based, Homo sapiens; details: Homo sapiens, OCUB-M;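 also: growth inhibition of the cancer cell line, read out through a cell viability assay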
Description: SANGER: Inhibition of human OCUB-M cell growth in a cell viability assay.

647-V = type: functional, cell-based, Homo sapiens; details: Homo sapiens, 647-V;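 also: growth inhibition of 647-V cells, read out with a cell viability assay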
Description: SANGER: Inhibition of human 647-V cell growth in a cell viability assay.

HGC-27 = type: functional, cell-based, Homo sapiens; details: Homo sapiens, HGC-27;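 also: growth inhibition of human HGC-27 cells, read out in a cell viability assay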
Description: SANGER: Inhibition of human HGC-27 cell growth in a cell viability assay.

ES8 = type: functional, cell-based, Homo sapiens; details: Homo sapiens, ES8;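 also: growth inhibition of human ES8 cells, read out with a cell viability assay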
Description: SANGER: Inhibition of human ES8 cell growth in a cell viability assay.

YKG-1 = type: functional, cell-based, Homo sapiens; details: Homo sapiens, YKG-1;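 also: cell growth inhibition, read out with a viability assay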
Description: SANGER: Inhibition of human YKG-1 cell growth in a cell viability assay.

J-RT3-T3-5 = type: functional, cell-based; details: Homo sapiens;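 also: cell viability assay measuring growth inhibition of human J-RT3-T3-5 cells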
Description: SANGER: Inhibition of human J-RT3-T3-5 cell growth in a cell viability assay.

G-401 = type: functional, cell-based, Homo sapiens; details: Homo sapiens, G-401
Description: SANGER: Inhibition of human G-401 cell growth in a cell viability assay.

IGROV-1 = type: functional, cell-based, Homo sapiens; details: Homo sapiens, IGROV-1;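 also: reduction of IGROV-1 cell growth, read out with a viability assay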
Description: SANGER: Inhibition of human IGROV-1 cell growth in a cell viability assay.

A673 = type: functional, cell-based, Homo sapiens; details: Homo sapiens, A673;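 also: growth inhibition of human A673 cells, read out through a cell viability assay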
Description: SANGER: Inhibition of human A673 cell growth in a cell viability assay.

RT-112 = type: functional, cell-based, Homo sapiens; details: Homo sapiens, RT-112
Description: SANGER: Inhibition of human RT-112 cell growth in a cell viability assay.

NCI-H510A = type: functional, cell-based; details: Homo sapiens;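 also: growth inhibition of NCI-H510A cells, read out with a cell viability assay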
Description: SANGER: Inhibition of human NCI-H510A cell growth in a cell viability assay.

769-P = type: functional, cell-based, Homo sapiens; details: Homo sapiens, 769-P
Description: SANGER: Inhibition of human 769-P cell growth in a cell viability assay.

PFSK-1 = type: functional, cell-based, Homo sapiens; details: Homo sapiens, PFSK-1;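 also: cell viability assay measuring how strongly compounds suppress growth of human PFSK-1 cells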
Description: SANGER: Inhibition of human PFSK-1 cell growth in a cell viability assay.

HSC-2 = type: functional, cell-based, Homo sapiens; details: Homo sapiens, HSC-2;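 also: growth inhibition of human HSC-2 cells, read out by a cell viability assay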
Description: SANGER: Inhibition of human HSC-2 cell growth in a cell viability assay.

RS4-11 = type: functional, cell-based; details: Homo sapiens;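 also: growth inhibition of RS4-11 cells, read out by a cell viability assay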
Description: SANGER: Inhibition of human RS4-11 cell growth in a cell viability assay.

MKN-7 = type: functional, cell-based, Homo sapiens; details: Homo sapiens, MKN-7;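 also: growth inhibition of MKN-7 cells, read out with a cell viability assay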
Description: SANGER: Inhibition of human MKN7 cell growth in a cell viability assay.

LB373-MEL-D = type: functional, cell-based, Homo sapiens; details: Homo sapiens, LB373-MEL-D;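 also: growth inhibition of the cell line, read out in a cell viability assay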
Description: SANGER: Inhibition of human LB373-MEL-D cell growth in a cell viability assay.

HCC1187 = type: functional, cell-based, Homo sapiens; details: Homo sapiens, HCC1187;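 also: growth inhibition of HCC1187 cells, read out with a cell viability assay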
Description: SANGER: Inhibition of human HCC1187 cell growth in a cell viability assay.

A704 = type: functional, cell-based, Homo sapiens; details: Homo sapiens, A704;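 also: growth inhibition of human A704 cells, read out with a cell viability assay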
Description: SANGER: Inhibition of human A704 cell growth in a cell viability assay.

OAW-42 = type: functional, cell-based, Homo sapiens; details: Homo sapiens, OAW-42;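 also: growth inhibition of OAW-42 cells, read out with a cell viability assay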
Description: SANGER: Inhibition of human OAW-42 cell growth in a cell viability assay.

NCI-H1770 = type: functional, cell-based; details: Homo sapiens;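 also: growth inhibition of NCI-H1770 cells determined with a viability readout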
Description: SANGER: Inhibition of human NCI-H1770 cell growth in a cell viability assay.

MG-63 = type: functional, cell-based, Homo sapiens; details: Homo sapiens, MG-63;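 also: growth inhibition of human MG-63 cells, read out with a cell viability assay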
Description: SANGER: Inhibition of human MG-63 cell growth in a cell viability assay.

NCI-H2052 = type: functional, cell-based, Homo sapiens; details: Homo sapiens, NCI-H2052;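 also: growth inhibition of NCI-H2052 cells, read out with a cell viability assay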
Description: SANGER: Inhibition of human NCI-H2052 cell growth in a cell viability assay.

A253 cell line = type: functional, cell-based, Homo sapiens; details: Homo sapiens, A253;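 also: growth inhibition of A253 cells, read out with a cell viability assay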
Description: SANGER: Inhibition of human A253 cell growth in a cell viability assay.

KY821 = type: functional, cell-based; details: Homo sapiens;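 also: growth inhibition of human KY821 cells, read out by a cell viability assay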
Description: SANGER: Inhibition of human KY821 cell growth in a cell viability assay.

**Q.** Which results are given for `Cn1cc(C2=C(c3ccc(Cl)cc3Cl)C(=O)NC2=O)c2ccccc21` [SB-216763]?
**A.** IC50 (DoTc2-4510): > 10000 nM; IC50 (A498): > 10000 nM; IC50 (HOS): > 10000 nM; IC50 (SW948): > 10000 nM; IC50 (ES1): > 10000 nM; IC50 (GCIY): > 10000 nM; IC50 (ASPC1): > 10000 nM; IC50 (NB14): > 10000 nM; IC50 (NCI-H1648): > 10000 nM; IC50 (Calu-6): > 10000 nM; IC50 (LU-134-A): > 10000 nM; IC50 (NCI-H2405): > 10000 nM; IC50 (A2058): > 10000 nM; IC50 (HCE-4): > 10000 nM; IC50 (NKM-1): > 10000 nM; IC50 (T98G): > 10000 nM; IC50 (COLO-680N): > 10000 nM; IC50 (NCI-H810): > 10000 nM; IC50 (ML-2): > 10000 nM; IC50 (NCI-H441): > 10000 nM; IC50 (LU-99A): > 10000 nM; IC50 (NCI-H2452): > 10000 nM; IC50 (AU565): > 10000 nM; IC50 (CAL-12T): > 10000 nM; IC50 (NCI-H596): > 10000 nM; IC50 (YAPC): > 10000 nM; IC50 (NCI-H2170): > 10000 nM; IC50 (OCUB-M): > 10000 nM; IC50 (647-V): > 10000 nM; IC50 (HGC-27): > 10000 nM; IC50 (ES8): > 10000 nM; IC50 (YKG-1): > 10000 nM; IC50 (J-RT3-T3-5): > 10000 nM; IC50 (G-401): > 10000 nM; IC50 (IGROV-1): > 10000 nM; IC50 (A673): > 10000 nM; IC50 (RT-112): > 10000 nM; IC50 (NCI-H510A): > 10000 nM; IC50 (769-P): > 10000 nM; IC50 (PFSK-1): > 10000 nM; IC50 (HSC-2): > 10000 nM; IC50 (RS4-11): 8240 nM; IC50 (MKN-7): > 10000 nM; IC50 (LB373-MEL-D): > 10000 nM; IC50 (HCC1187): > 10000 nM; IC50 (A704): > 10000 nM; IC50 (OAW-42): > 10000 nM; IC50 (NCI-H1770): 294 nM; IC50 (MG-63): > 10000 nM; IC50 (NCI-H2052): > 10000 nM

**Q.** With `C=CCNC1=C2C[C@@H](C)C[C@H](OC)[C@H](O)[C@@H](C)/C=C(\C)[C@H](OC(N)=O)[C@@H](OC)/C=C\C=C(/C)C(=O)NC(=CC1=O)C2=O` [TANESPIMYCIN] as the compound, how does the IC50 (DoTc2-4510) read?
**A.** Its IC50 is 208 nM.

**Q.** And the IC50 (A498)?
**A.** The IC50 was 102 nM.

**Q.** And the IC50 (HOS)?
**A.** Its IC50 is 417 nM.

**Q.** And the IC50 (SW948)?
**A.** Its IC50 is over 1000 nM.

**Q.** What about the IC50 (ES1) of the same compound?
**A.** Its IC50 is over 1000 nM.

**Q.** And the IC50 (GCIY)?
**A.** Its IC50 is 918 nM.

**Q.** What about the IC50 (ASPC1) of the same compound?
**A.** The IC50 was 152 nM.

**Q.** And the IC50 (NB14)?
**A.** The IC50 was over 1000 nM.

**Q.** And the IC50 (NCI-H1648)?
**A.** The IC50 was 152 nM.

**Q.** And the IC50 (Calu-6)?
**A.** The IC50 was over 1000 nM.

**Q.** What about the IC50 (LU-134-A) of the same compound?
**A.** The IC50 was 261 nM.

**Q.** And the IC50 (NCI-H2405)?
**A.** Its IC50 is 346 nM.

**Q.** What about the IC50 (A2058) of the same compound?
**A.** Its IC50 is 72.3 nM.

**Q.** And the IC50 (HCE-4)?
**A.** Its IC50 is 474 nM.

**Q.** And the IC50 (NKM-1)?
**A.** Its IC50 is 107 nM.

**Q.** What about the IC50 (T98G) of the same compound?
**A.** The IC50 was 41 nM.

**Q.** What about the IC50 (A253 cell line) of the same compound?
**A.** The IC50 was over 1000 nM.

**Q.** And the IC50 (COLO-680N)?
**A.** Its IC50 is 194 nM.

**Q.** What about the IC50 (NCI-H810) of the same compound?
**A.** Its IC50 is over 1000 nM.

**Q.** And the IC50 (KY821)?
**A.** The IC50 was 299 nM.

**Q.** What about the IC50 (ML-2) of the same compound?
**A.** Its IC50 is 231 nM.

**Q.** And the IC50 (NCI-H441)?
**A.** The IC50 was over 1000 nM.

**Q.** What about the IC50 (LU-99A) of the same compound?
**A.** Its IC50 is 62.4 nM.

**Q.** What about the IC50 (NCI-H2452) of the same compound?
**A.** Its IC50 is 140 nM.

**Q.** What about the IC50 (AU565) of the same compound?
**A.** Its IC50 is over 1000 nM.

**Q.** And the IC50 (CAL-12T)?
**A.** Its IC50 is 428 nM.

**Q.** What about the IC50 (NCI-H596) of the same compound?
**A.** Its IC50 is over 1000 nM.

**Q.** What about the IC50 (YAPC) of the same compound?
**A.** Its IC50 is 451 nM.

**Q.** What about the IC50 (NCI-H2170) of the same compound?
**A.** The IC50 was 175 nM.

**Q.** What about the IC50 (OCUB-M) of the same compound?
**A.** The IC50 was over 1000 nM.

**Q.** And the IC50 (647-V)?
**A.** The IC50 was over 1000 nM.

**Q.** And the IC50 (HGC-27)?
**A.** Its IC50 is 5.1 nM.

**Q.** What about the IC50 (ES8) of the same compound?
**A.** Its IC50 is 308 nM.

**Q.** What about the IC50 (YKG-1) of the same compound?
**A.** The IC50 was 50.7 nM.

**Q.** What about the IC50 (J-RT3-T3-5) of the same compound?
**A.** Its IC50 is over 1000 nM.

**Q.** What about the IC50 (G-401) of the same compound?
**A.** The IC50 was 104 nM.

**Q.** And the IC50 (IGROV-1)?
**A.** The IC50 was 184 nM.

**Q.** And the IC50 (A673)?
**A.** Its IC50 is over 1000 nM.

**Q.** And the IC50 (RT-112)?
**A.** Its IC50 is 140 nM.

**Q.** What about the IC50 (769-P) of the same compound?
**A.** The IC50 was 213 nM.

**Q.** And the IC50 (PFSK-1)?
**A.** The IC50 was over 1000 nM.

**Q.** And the IC50 (HSC-2)?
**A.** Its IC50 is 341 nM.

**Q.** What about the IC50 (RS4-11) of the same compound?
**A.** Its IC50 is over 1000 nM.

**Q.** And the IC50 (MKN-7)?
**A.** The IC50 was over 1000 nM.

**Q.** And the IC50 (LB373-MEL-D)?
**A.** The IC50 was over 1000 nM.

**Q.** And the IC50 (HCC1187)?
**A.** Its IC50 is over 1000 nM.

**Q.** What about the IC50 (A704) of the same compound?
**A.** Its IC50 is over 1000 nM.

**Q.** What about the IC50 (OAW-42) of the same compound?
**A.** Its IC50 is over 1000 nM.

**Q.** What about the IC50 (NCI-H1770) of the same compound?
**A.** The IC50 was over 1000 nM.

**Q.** What about the IC50 (MG-63) of the same compound?
**A.** The IC50 was over 1000 nM.

**Q.** What about the IC50 (NCI-H2052) of the same compound?
**A.** The IC50 was over 1000 nM.
